# Measured values published in ChEMBL document CHEMBL1126364, “A new class of leukotriene biosynthesis inhibitors: The discovery of MK0591” (Bioorg Med Chem Lett, 1992).
# Organism: Homo sapiens
# Experiment: Leukotriene synthesis inhibition activity in the Human PMN assay
# Format: functional, organism-based
# Conditions: not given
row,IC50,SMILES
1,20 nM,O=C(O)CSC(CCCc1ccc(Cl)cc1)c1ccc(OCc2ccc3ccccc3n2)cc1 (stereo in doubt; 1)
2,5 nM,"O=C(O)CSC(CCCc1ccc(Cl)cc1)c1ccc(OCc2ccc3ccccc3n2)cc1 (single isomer, unassigned; (+))"
3,10 nM,"O=C(O)CSC(CCCc1ccc(Cl)cc1)c1ccc(OCc2ccc3ccccc3n2)cc1 (single isomer, unassigned; (-))"

# Same assay, conditions: Homo sapiens
row,IC50,SMILES
1,870 nM,COc1ccc2c(c1)c(C)c(CC(C)(C)C(=O)O)n2Cc1ccc(Cl)cc1
2,3 nM,Cc1c(CC(C)(C)C(=O)O)n(Cc2ccc(Cl)cc2)c2ccc(OCc3ccc4ccccc4n3)cc12
3,3 nM,CC(C)(C)Sc1c(CC(C)(C)C(=O)O)n(Cc2ccc(Cl)cc2)c2ccc(OCc3ccc4ccccc4n3)cc12 [QUIFLAPON]
4,30 nM,c1ccc(COCC(OCc2ccccc2)c2ccc(OCc3ccc4ccccc4n3)cc2)cc1 (stereo not given)

row,SMILES,IC50
1,CC(C)c1ccc2c(c1)c(SC(C)(C)C)c(CC(C)(C)C(=O)O)n2Cc1ccc(Cl)cc1,3 nM

# Target: T1, Arachidonate 5-lipoxygenase-activating protein (Homo sapiens, UniProt P20292)
# T1 sequence (P20292 whole entry): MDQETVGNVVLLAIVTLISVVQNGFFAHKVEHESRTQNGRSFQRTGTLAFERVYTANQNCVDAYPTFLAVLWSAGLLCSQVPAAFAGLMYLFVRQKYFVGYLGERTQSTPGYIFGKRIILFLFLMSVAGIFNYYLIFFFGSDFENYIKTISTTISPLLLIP
# Experiment: The compound was tested for the inhibition of binding of [125I]- L- 691,831 binding to 5-lipoxygenase activating protein
# Conditions: not given
row,IC50,SMILES
1,2 nM,CC(C)(C)Sc1c(CC(C)(C)C(=O)O)n(Cc2ccc(Cl)cc2)c2ccc(OCc3ccc4ccccc4n3)cc12 [QUIFLAPON]

# Target: T1, Arachidonate 5-lipoxygenase-activating protein
# Experiment: The compound was tested for the inhibition of binding of [125I]- L- 691,831 binding to 5-lipoxygenase activating protein (FLAP)
# Conditions: not given
row,IC50,SMILES
1,4 nM,O=C(O)CSC(CCCc1ccccc1)(CCc1ccccc1)c1ccc(OCc2ccc3ccccc3n2)cc1 (stereo not given)
2,122 nM,O=C(O)CSC(CCCc1ccc(Cl)cc1)c1ccc(OCc2ccc3ccccc3n2)cc1 (stereo in doubt; 1)

row,SMILES,IC50
1,CC(C)c1ccc2c(c1)c(SC(C)(C)C)c(CC(C)(C)C(=O)O)n2Cc1ccc(Cl)cc1,23 nM

# Organism: Homo sapiens
# Experiment: Leukotriene synthesis inhibition activity in the Human whole blood assay
# Format: functional, organism-based
# Conditions: not given
row,IC50,SMILES
1,> 22000 nM,O=C(O)CSC(CCCc1ccc(Cl)cc1)c1ccc(OCc2ccc3ccccc3n2)cc1 (stereo in doubt; 1)
2,500 nM,CC(C)(C)Sc1c(CC(C)(C)C(=O)O)n(Cc2ccc(Cl)cc2)c2ccc(OCc3ccc4ccccc4n3)cc12 [QUIFLAPON]

row,SMILES,IC50
1,CC(C)c1ccc2c(c1)c(SC(C)(C)C)c(CC(C)(C)C(=O)O)n2Cc1ccc(Cl)cc1,2100 nM
